These results are taken from EP4559908A1, “HETEROARYL DERIVATIVE COMPOUND AND USE THEREOF” (S2CBio Inc., priority 2022, dated 2024).

This test deals with T1, human ANO6 (variant 5) (Homo sapiens, UniProt Q4KMQ2).
T1 construct: expressed in transfected cells; host or cells: Fischer rat thyroid (FRT) cells
T1 sequence (Q4KMQ2 1-931 isoform Q4KMQ2-2): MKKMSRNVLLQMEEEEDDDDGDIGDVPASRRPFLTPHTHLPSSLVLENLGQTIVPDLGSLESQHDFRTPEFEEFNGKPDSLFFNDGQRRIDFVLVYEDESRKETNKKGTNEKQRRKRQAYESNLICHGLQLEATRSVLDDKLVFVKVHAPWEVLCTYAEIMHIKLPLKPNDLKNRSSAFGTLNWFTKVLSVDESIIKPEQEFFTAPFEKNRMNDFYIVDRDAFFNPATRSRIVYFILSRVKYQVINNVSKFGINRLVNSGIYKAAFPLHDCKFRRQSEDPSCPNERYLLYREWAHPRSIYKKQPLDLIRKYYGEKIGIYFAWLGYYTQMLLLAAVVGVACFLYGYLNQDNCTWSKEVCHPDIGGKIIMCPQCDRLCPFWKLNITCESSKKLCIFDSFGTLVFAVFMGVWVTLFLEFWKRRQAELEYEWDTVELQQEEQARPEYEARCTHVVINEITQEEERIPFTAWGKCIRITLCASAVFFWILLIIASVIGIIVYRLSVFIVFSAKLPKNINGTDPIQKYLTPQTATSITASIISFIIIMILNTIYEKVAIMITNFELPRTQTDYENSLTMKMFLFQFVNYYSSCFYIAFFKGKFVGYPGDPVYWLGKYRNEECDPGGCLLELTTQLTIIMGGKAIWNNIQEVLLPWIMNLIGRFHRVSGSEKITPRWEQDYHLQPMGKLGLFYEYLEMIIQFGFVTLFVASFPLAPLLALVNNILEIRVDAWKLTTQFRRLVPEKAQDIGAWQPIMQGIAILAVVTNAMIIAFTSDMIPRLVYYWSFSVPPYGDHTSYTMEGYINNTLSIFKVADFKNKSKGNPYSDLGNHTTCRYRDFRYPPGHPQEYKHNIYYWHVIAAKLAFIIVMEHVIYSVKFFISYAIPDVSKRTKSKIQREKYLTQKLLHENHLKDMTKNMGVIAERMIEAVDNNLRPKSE
In words: Lact C2 assay (measuring phosphatidylserine externalization scramblase function). Type of test: cell-based. The note with it: FRT, FRT cells expressing human ANO6 (variant 5), ionomycin 10 µM, Lact-C2-GFP fluorescence, average of three tests; for inhibition at 0.05 µM: compound 50 nM, read-out: % Inhibition 50 nM; for inhibition at 0.1 µM: compound 100 nM; for inhibition at 1 µM: compound 1 µM, read-out: % Inhibition 1 µM. How it is done: Ionomycin (Alomonelab, cat. # I-700), DAPI (Sigma- Aldrich, cat. # D8417), paraformaldehyde (Biosesang, cat. #P2031), Lionheart FX automated fluorescence microscope (BioTek), Gen5™ software program (BioTek), and Image J analysis software program.
After the incubation, the cells were treated with compounds dissolved in DMSO to 1% v/v in each well at each concentration (50 nM, 100 nM, and 1 µM) and reacted for 10 minutes. Thereafter, each well was treated with ionomycin to a final concentration of 10 µM, allowed to react for 10 minutes, and then washed with 200 µL PBS. After washing, each well was treated with 50 µL of Lactadherin-C2 (Lact-C2)-GFP mixed in DMEM medium to a final concentration of 500 nM to stain phosphatidylserine, and cultured at 37°C for 10 minutes. After completion of the reaction, the cells were washed with 200 µL PBS, and fixed with 4% paraformaldehyde for 5 minutes at room temperature. For morphological analysis, DAPI solution was added, and the cells were incubated for 15 minutes, followed by washing with PBS. The fluorescence intensity of Lact-C2-GFP bound to phosphatidylserine on the cell surface was measured using an automated fluorescence microscope. For quantitative analysis of the fluorescence intensity of Lact-C2-GFP, BioTek Gen5™ software and Image J analysis software programs were used.
Phosphatidylserine externalization inhibitory activity (%) by the compound was calculated through the following analysis method. Specifically, the background fluorescence value was subtracted from the measured Lact-C2-GFP fluorescence value, and the fluorescence value of the ionomycin non-treatment group and the ionomycin-treatment group in the same row where each test group was located in a 96-well microplate were calculated. In order to calculate the inhibitory activity (%) by the compound, the relative inhibitory activity was calculated by setting the compound and ionomycin non-treatment group to 100% inhibitory activity and the ionomycin alone treatment group to 0% inhibitory activity.

A word on the inhibition: it is the share of the control response that was lost under treatment. Take `c1cncc(-c2ccc(Nc3cccc(-c4nc5ccccc5[nH]4)c3)cc2)c1` [Example 31, N-[3-(1H-benzo[d]imidazol-2-yl)phenyl]-4-(pyridin-3-yl)aniline]: the inhibition at 0.05 µM was 30 to 60% and the inhibition at 0.1 µM is above 60%.

In the case of `FC(F)(F)c1ccc2nc(-c3cccc(Nc4ccc(-c5ccncn5)cn4)c3)[nH]c2c1` [Example 88, 5-pyrimidin-4-yl-N-[3-[6-(trifluoromethyl)-1H-benzo[d]imidazol-2-yl]phenyl]pyridin-2-amine], the inhibition at 0.05 µM was above 60% and the inhibition at 1 µM is above 60%.

As for `c1cc(Nc2ncc(-c3cccnn3)cn2)cc(-c2nc3ccccc3[nH]2)c1` [Example 53, N-[3-(1H-benzo[d]imidazol-2-yl)phenyl]-5-(pyridazin-3-yl)pyrimidin-2-amine], the inhibition at 0.05 µM was in the range of 30 to 60% and the inhibition at 0.1 µM is 30 to 60%.

On to `FC(F)(F)c1ccc2nc(-c3cccc(Nc4ccc(-c5ccccn5)cn4)c3)[nH]c2c1` [Example 57, N-{3-[6-(trifluoromethyl)-1H-benzo[d]imidazol-2-yl]phenyl}-[2,3'-bipyridin]-6'-amine], for which the inhibition at 0.05 µM was above 60% and the inhibition at 0.1 µM was above 60%.

As to `FC(F)(F)c1cc2nc(-c3cccc(Nc4ccc(-c5ccccc5)nn4)c3)[nH]c2cc1Cl` [Example 8, N-{3-[6-chloro-5-(trifluoromethyl)-1H-benzo[d]imidazol-2-yl]phenyl}-6-phenylpyridazin-3-amine], the inhibition at 0.05 µM is above 60%, the inhibition at 0.1 µM was above 60% and the inhibition at 1 µM was above 60%.

With `c1cc(Nc2ncc(-c3ccoc3)cn2)cc(-c2nc3ccccc3[nH]2)c1` [Example 163, N-[3-(1H-benzo[d]imidazol-2-yl)phenyl]-5-(3-furyl)pyrimidin-2-amine], the inhibition at 1 µM is above 60%.

Turning to `FC(F)Oc1ccc2nc(-c3cccc(Nc4ccc(-c5ccccn5)cn4)c3)[nH]c2c1` [Example 284, N-(3-(6-(difluoromethoxy)-1H-benzo[d]imidazol-2-yl)phenyl)-[2,3'-bipyridin]-6'-amine], the inhibition at 0.05 µM is above 60% and the inhibition at 1 µM was above 60%.

On to `N#Cc1ccc2nc(-c3cccc(Nc4ccc(-c5cccnn5)cc4)c3)[nH]c2c1` [Example 231, 2-(3-((4-(pyridazin-3-yl)phenyl)amino)phenyl)-1H-benzo[d]imidazole-6-carbonitrile], for which the inhibition at 1 µM is above 60%.

Consider `FC(F)(F)c1cc2[nH]c(-c3cccc(Nc4ccc(-c5cccnn5)cn4)c3)nc2cn1` [Example 254, 5-(pyridazin-3-yl)-N-(3-(6-(trifluoromethyl)-1H-imidazo[4,5-c]pyridin-2-yl)phenyl)pyridin-2-amine], for which the inhibition at 0.05 µM was above 60% and the inhibition at 1 µM was above 60%.

As for `COc1ccc2nc(-c3cccc(Nc4ccc(-c5cccnn5)cc4)c3)[nH]c2c1` [Example 223, 3-(6-methoxy-1H-benzo[d]imidazol-2-yl)-N-(4-(pyridazin-3-yl)phenyl)aniline], the inhibition at 0.05 µM is above 60% and the inhibition at 1 µM was above 60%.

In the case of `c1cc(Nc2ccc(-c3ncco3)cc2)cc(-c2nc3ccccc3[nH]2)c1` [Example 165, 3-(1H-benzo[d]imidazol-2-yl)-N-(4-oxazol-2-ylphenyl)aniline], the inhibition at 0.05 µM was 30 to 60% and the inhibition at 1 µM is above 60%.

On to `Clc1ccc2nc(-c3cccc(Nc4ncc(-c5ccccn5)cn4)c3)[nH]c2c1` [Example 82, N-[3-(6-chloro-1H-benzo[d]imidazol-2-yl)phenyl]-5-(2-pyridyl)pyrimidin-2-amine], for which the inhibition at 0.05 µM was above 60%.

Consider `N#Cc1ccc(Nc2cccc(-c3nc4ccc(C(F)(F)F)cc4[nH]3)c2)nc1` [Example 314, 6-((3-(6-(trifluoromethyl)-1H-benzo[d]imidazol-2-yl)phenyl)amino)nicotinonitrile], for which the inhibition at 0.05 µM was above 60% and the inhibition at 1 µM is above 60%.
